Test results: patent publication US11766415B2, “Reducing triglyceride levels and cortisol levels with pharmaceutical preparations” (GLYKON TECHNOLOGIES GROUP, LLC, priority 2020, dated 2023)

How the values were obtained:
[1] = test system: Cortisol; assay: Blood cortisol before and 90 minutes after administration; format: in vivo, human
Procedure: (§1) Subject 5 was a person, weighing approximately 285 pounds and with a normal fasting blood sugar level of 115-120. First, blood was drawn from Subject 5 and levels of various biomolecules were measured. Next, Subject 5 was administered 16.66 ml of the Example 1 formulation on an empty stomach, i.e. wherein with each 16.66 ml the subject received 5,000 mg of the potassium-magnesium (−)-hydroxycitric acid salt, corresponding to 3490 mg of (−)-hydroxycitric acid. 90 minutes after the administration, blood was drawn from Subject 5 and levels of the various biomolecules were remeasured.
(§2) Subject 6 was administered 16.66 ml of the Example 1 formulation on an empty stomach, i.e. wherein with each 16.66 ml the subject received 5,000 mg of the potassium-magnesium (−)-hydroxycitric acid salt, corresponding to 3490 mg of (−)-hydroxycitric acid. 90 minutes after the administration, blood was drawn from Subject 6 and levels of the various biomolecules were remeasured.

[2] = test system: blood sugar; assay: Blood sugar levels after HCA administration; format: in vivo, human; details: conclusion, summary; in some cases only transient
Procedure: as §1, with “remeasured. […] It is hypothesized that this transient elevation is due to Randall's Cycle. […] In support of this explanation, it is noted that this subject had previously used HCA formulations with the result of keeping their otherwise elevated fasting blood glucose levels in the low- to mid-90s with consistent usage.” for “remeasured.”

[3] = test system: Triglycerides; assay: Blood triglycerides before and 90 minutes after administration; format: in vivo, human
Procedure: as §1, §2

[4] = test system: blood hemoglobin and oxygen saturation; assay: fNIRS measurement of blood hemoglobin and oxygen saturation after oral administration; format: in vivo, human; details: conclusion, summary over subjects
Procedure: Subjects 1-4 were orally administered the formulation of Example 1. The Subjects were given either one or two administrations of 8.33 ml of the aqueous formulation of Example 1 on an empty stomach, i.e. wherein with each 8.33 ml the subject received 2,500 mg of the potassium-magnesium (−)-hydroxycitric acid salt, corresponding to 1745 mg of (−)-hydroxycitric acid.
fNIRS testing (functional Near Infrared Spectroscopy) was used to measure blood hemoglobin and oxygen saturation. fNIRS can be used to determine real-time peripheral and cerebral hemodynamic responses. For example, relative changes in HbR (deoxygen saturation), HbO (oxygen saturation), and HbT (total hemoglobin concentration), etc. can be determined via application of Modified Beer Lambert Law. HbR, Hb=deoxygen saturation (shown as the thinnest and bottom dashed line in FIG. 1) HbO, HbO2=oxygen saturation (shown as the medium-thickness and middle line in FIG. 1) HbT=total hemoglobin concentration (shown as the darkest, thickest and top line in FIG. 1). On the graphs, time is in seconds.

[5] = biological target: T1, ATP citrate lyase (Homo sapiens, UniProt P53396); details: background statement; cited from earlier work
T1 sequence (P53396 1-1101): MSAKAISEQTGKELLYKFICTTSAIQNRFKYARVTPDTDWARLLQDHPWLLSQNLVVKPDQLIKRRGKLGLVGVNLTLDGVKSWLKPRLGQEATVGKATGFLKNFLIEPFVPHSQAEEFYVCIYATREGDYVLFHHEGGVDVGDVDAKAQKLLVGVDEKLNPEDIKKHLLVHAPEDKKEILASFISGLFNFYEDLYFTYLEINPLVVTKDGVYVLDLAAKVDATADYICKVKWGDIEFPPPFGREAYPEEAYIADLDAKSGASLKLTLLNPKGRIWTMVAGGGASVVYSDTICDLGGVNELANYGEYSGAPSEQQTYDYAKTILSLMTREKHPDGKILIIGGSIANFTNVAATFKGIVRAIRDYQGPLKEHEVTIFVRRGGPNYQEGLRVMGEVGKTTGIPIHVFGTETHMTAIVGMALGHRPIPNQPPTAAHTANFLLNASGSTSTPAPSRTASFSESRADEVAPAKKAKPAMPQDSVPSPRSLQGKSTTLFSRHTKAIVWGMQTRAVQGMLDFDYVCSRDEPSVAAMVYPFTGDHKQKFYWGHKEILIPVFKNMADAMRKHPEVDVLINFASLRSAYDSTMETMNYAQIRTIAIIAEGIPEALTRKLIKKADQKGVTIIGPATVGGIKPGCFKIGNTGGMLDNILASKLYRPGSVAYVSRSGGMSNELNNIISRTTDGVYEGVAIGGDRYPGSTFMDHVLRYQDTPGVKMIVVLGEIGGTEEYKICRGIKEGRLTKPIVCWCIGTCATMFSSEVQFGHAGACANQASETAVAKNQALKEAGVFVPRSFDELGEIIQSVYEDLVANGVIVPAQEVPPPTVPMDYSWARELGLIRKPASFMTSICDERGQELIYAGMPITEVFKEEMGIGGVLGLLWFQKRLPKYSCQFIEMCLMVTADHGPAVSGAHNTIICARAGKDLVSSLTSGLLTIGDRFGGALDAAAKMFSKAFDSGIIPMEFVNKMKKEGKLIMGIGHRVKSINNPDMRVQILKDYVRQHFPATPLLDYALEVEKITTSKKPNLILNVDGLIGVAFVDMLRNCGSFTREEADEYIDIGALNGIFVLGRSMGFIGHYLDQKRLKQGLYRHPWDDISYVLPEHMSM

[6] = test system: Ketones; assay: Blood ketones before and 90 minutes after administration; format: in vivo, human
Procedure: as §1

[7] = biological target: T2, pancreatic alpha-amylase (Homo sapiens, UniProt P04746); details: background statement; in vitro; cited from earlier work
T2 sequence (P04746 16-511): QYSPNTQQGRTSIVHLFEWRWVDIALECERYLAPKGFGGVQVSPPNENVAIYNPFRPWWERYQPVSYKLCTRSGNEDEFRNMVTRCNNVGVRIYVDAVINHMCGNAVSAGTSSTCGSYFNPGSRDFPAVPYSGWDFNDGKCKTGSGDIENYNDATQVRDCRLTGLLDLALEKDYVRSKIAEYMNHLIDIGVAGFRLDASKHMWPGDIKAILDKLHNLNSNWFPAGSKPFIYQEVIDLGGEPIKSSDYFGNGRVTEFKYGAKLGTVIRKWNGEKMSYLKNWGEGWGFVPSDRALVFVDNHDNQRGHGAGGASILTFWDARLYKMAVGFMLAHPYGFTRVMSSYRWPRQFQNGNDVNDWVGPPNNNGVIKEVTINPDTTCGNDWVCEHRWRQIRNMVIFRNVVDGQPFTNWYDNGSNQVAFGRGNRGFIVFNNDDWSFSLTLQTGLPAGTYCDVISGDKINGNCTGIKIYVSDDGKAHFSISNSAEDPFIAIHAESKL

[8] = test system: intestinal alpha-glucosidase; details: background statement; in vitro; cited from earlier work
[9] = conclusion, summary over subjects
[10] = a subject (Example 3), 5,000 mg salt (3,490 mg (−)-hydroxycitric acid), 90 minutes later

With O=C(O)CC(O)(C(=O)O)C(O)C(=O)O (stereo not drawn) [HCA, 1,2-dihydroxypropane-1,2,3-tricarboxylic acid] the cortisol [1, 9] was “decreased”, the glucose [2] was “increased” and the triglycerides [3, 9] was “decreased”. For the same molecule, the blood hemoglobin [4] was “increased”, the oxygen saturation [4] was “increased” and the “inhibition of ATP citrate lyase” value [5] was “competitive inhibitor”. For the same molecule, the “Ketones Result” value ([6]; Subject 5, 5,000 mg salt, empty stomach, 90 mins after administration, before 0.6) was 0.5 and the levels of ketones ([6]; conclusion, summary) was “relatively stable or slightly lower”.
For O=C(O)C[C@](O)(C(=O)O)[C@H](O)C(=O)O [(2S,3R)-HCA], the “inhibition of pancreatic alpha-amylase” value [7] is listed as “inhibits” and the “inhibition of intestinal alpha-glucosidase” value [8] is listed as “inhibits”.
In the case of “potassium-magnesium salt of (−)-hydroxycitric acid”, the “decrease in cortisol level” value [1, 10] is reported as 20% and the “decrease in triglyceride level” value [3, 10] is reported as 67%.
